Data: publication PMC5773487, “Harnessing insulin- and leptin-induced oxidation of PTP1B for therapeutic development” (Nature Communications, 2018)

Tests used:
[1] = tested on: high fat diet-fed C57Bl6/J mice; assay: body weight, glucose and insulin tolerance tests in diet-fed mice; format: in vivo; settings: for glucose tolerance (GTT) / insulin sensitivity (ITT): HFD fed 14-week-old male mice; for glucose tolerance (GTT): D-glucose 2 mg g−1; for insulin sensitivity (ITT): insulin 0.75 mU g−1
Experimental: Animal experiments were performed according to protocols approved by the Institutional Animal Use and Care Committee of Cold Spring Harbor laboratory. Ten week-old male C57bl6/J mice fed chow diet or high fat diet (D12492) were acclimatized for 10 days under standard conditions before experiments. Mice were intraperitoneally (i.p.) injected once daily with vehicle, 3 mg kg^−1 of chelerythrine or 3 mg kg^−1 of protopine for 30 days. Mice were killed after 6 h of fasting, and serum samples were collected to measure the metabolic parameters and tissue samples were collected for studying changes in signaling. No animals were excluded from the analysis.
Glucose in tail blood was measured using a glucometer (One-Touch Basic; Lifescan, CA). For glucose tolerance tests (GTTs), mice were fasted for 10 h and then injected with 20% D-glucose (2 mg g^−1 body weight) and the blood glucose was monitored immediately before and at 15, 30, 60, and 120 min following the injection. For insulin tolerance tests (ITTs), 4 h fasted animals were given insulin (0.75 mU g^−1) and blood glucose was measured immediately before and at 30, 60, and 120 min post-injection. Statistical analysis was performed using ANOVA for both GTT and ITT.

[2] = tested on: insulin signaling in 293T cells; assay: insulin signaling in 293T cells (immunoblot); format: cell-based; settings: for insulin-induced activation of AKT (pThr308) / insulin-induced phosphorylation of insulin receptor β-subunit (IR-β): 293T cells, compound 2 μM 1 h, insulin 25 nM
Experimental: To study the effect of chelerythrine and protopine on insulin signaling we used 293T cells (ATCC) and cultured in DMEM containing 10% FBS. For insulin signaling, cells were serum starved for 16 h and then treated with chelerythrine (2 µM) or protopine (2 µM) for 1 h. Following which, cells were treated with 25 nM insulin for various times (0, 5, 10, 20 min) at 37 °C. Cells were washed with PBS and lysed in de-gassed RIPA lysis buffer (25 mM HEPES pH 7.5, 150 mM NaCl, 0.25% Deoxychloate, 10% Glycerol, 25 mM NaF, 10 mM MgCl2, 1 mM EDTA, 1% Triton X-100, 0.5 mM PMSF, 10 mM Benzamidine, cOmplete protease inhibitor cocktail (Roche)). Soluble proteins were harvested by centrifugation at 13,000×g for 10 min at 4 °C and quantitated. Total proteins in the cell lysates were separated by SDS-PAGE and tyrosyl phosphorylation of the IR-β subunit and downstream AKT activation was monitored. To test the effect of suppressing H2O2 levels on the function of the compounds, catalase was ectopically expressed in cells for 24 h. Following which, the cells were treated with the compounds as mentioned above. […] Catalase expression was detected in the cell samples with a rabbit polyclonal antibody (Abcam, ab52477).
Mammalian expression plasmids used in this study were as follows: pCMV-FLAG and pCMV-FLAG-PTP1B (wt and -mut2). Empty vector, FLAG-PTP1B-wt, or FLAG-PTP1B-mut2 were transfected into 293T cells for 24 h, following which, cells were serum starved for 8 h and then treated with chelerythrine (2 µM) for 1 h. Subsequently, cells were treated with 10 nM insulin for various times (0, 10, 20 min) at 37 °C. Cells were washed with PBS and lysed in de-gassed RIPA lysis buffer (25 mM HEPES pH 7.5, 150 mM NaCl, 0.25% Deoxycholate, 10% Glycerol, 25 mM NaF, 10 mM MgCl2, 1 mM EDTA, 1% Triton X-100, 0.5 mM PMSF, 10 mM Benzamidine, cOmplete protease inhibitor cocktail (Roche)). Soluble proteins were harvested by centrifugation at 13,000×g for 10 min at 4 °C and quantitated. Total proteins in the cell lysates were separated by SDS-PAGE and tyrosyl phosphorylation of the IR-β subunit was analyzed by immunoblotting.

Row | SMILES | glucose tolerance (GTT) [1] | insulin sensitivity (ITT) [1] | change in body weight, chow diet ([1]; chow diet-fed mice, 3 mg kg−1 i.p. once daily) | decrease in body weight ([1]; high fat diet-fed mice, 3 mg kg−1 i.p. once daily) | basal signaling in the absence of insulin or leptin [2] | stimulatory effect on IR-β phosphorylation and AKT activation upon catalase overexpression ([2]; 293T cells expressing catalase, 2 μM) | insulin-induced activation of AKT (pThr308) [2] | insulin-induced phosphorylation of insulin receptor β-subunit (IR-β) [2] | insulin signaling in cells expressing PTP1B-mut2 ([2]; 293T, 2 μM, insulin 10 nM) | insulin signaling in control and PTP1B-wt expressing cells ([2]; 293T, 2 μM, insulin 10 nM) | observed cellular efficacy ([2]; reviewer's remark in peer review file) [µM] | weight loss in high fat diet-fed mice ([1]; 3 mg kg−1 i.p. once daily, in words)
1 | COc1ccc2c(c[n+](C)c3c4cc5c(cc4ccc23)OCO5)c1OC [chelerythrine] | improved | improved | no significant change | ~ 3% | no impact | ablated | enhanced | enhanced and sustained phosphorylation | insensitive | elevated insulin signaling | < 2 | –
2 | CN1CCc2cc3c(cc2C(=O)Cc2ccc4c(c2C1)OCO4)OCO3 [protopine] | did not improve | did not improve | – | – | – | – | no significant effect | no significant effect | – | – | – | not observed
